Reference: US20040220266A1, “Composition and method for enhancing the bioavailability of calcium and magnesium in dietary supplements and food additives” (priority 2002, published 2004)

Key:
[1] = oral dietary supplement; cited from earlier work
[2] = Storage stability of the powders; format: physicochemical; details: shelf life
[3] = Solubility in water / saturated aqueous solution
Text: The term “soluble” as used herein means capable of being dissolved, going into a liquid state from a solid state.

[4] = saturated aqueous solution, 20° C.; cited from earlier work

Molecule | bioavailability / absorption of calcium (in words) [1] | other results
O.O.O=P([O-])([O-])O.[Ca+2] [dibasic calcium phosphate dihydrate] | poor | 
O=P([O-])([O-])[O-].O=P([O-])([O-])[O-].[Ca+2].[Ca+2].[Ca+2] [tribasic calcium phosphate] | poor | 
magnesium 3-hydroxy-3-methylbutyrate [MgHMB] |  | stability of the powder (in words) [2]: stable powders with long shelf lives; concentration of saturated aqueous solution ([3]; 20° C.): 32 % by weight; solubility over pH range (in words) ([3]; broad range of pH values): highly soluble; pH of aqueous solution (in words) ([3]; pure salt dissolved in water): nearly neutral or slightly alkaline
d-gluconic acid calcium salt [Calcium gluconate] |  | pH of saturated solution [4]: 6-7
O=C([O-])[O-].[Ca+2] [Calcium carbonate] | relatively poor | 
O.O.O.O.O=C([O-])CC(O)(CC(=O)[O-])C(=O)[O-].O=C([O-])CC(O)(CC(=O)[O-])C(=O)[O-].[Ca+2].[Ca+2].[Ca+2] [Calcium citrate tetrahydrate] | better absorbed than the carbonate or phosphates of calcium | 
CC(O)C(=O)[O-].CC(O)C(=O)[O-].O.O.O.O.O.[Ca+2] (stereo not shown) [calcium lactate pentahydrate, 2-hydroxypropanoic acid calcium salt pentahydrate] | good | 
